# Reference: patent US20180071354A1, “SELECTIVE BREEDING METHOD OF ANTITUMOR/ANTICANCER CAMELLIA SINENSIS STRAIN, AND TEA PRODUCT OF SUCH STRAIN” (FUJIAN AGRICULTURE AND FORESTRY UNIVERSITY, priority 2015, published 2018)
# Key:
# [1] = test system: human lung cancer cell line A549; assay: In vitro antitumor/anticancer testing (CCK-8), A549; assay type: cell-based; conditions: 48 h
# Procedure: (§1) Each of Tea Product 1 and Conventional Tea Product obtained in section A of this example was used to prepare test tea samples according to the method described below. A proper amount of the respective tea product was added into sterile water to prepare a stock solution with a concentration of 100 mg/mL, followed by using a membrane filter with a pore size of 0.22 μm to conduct vacuum filtration and sterilization. The resulting stock solution was diluted with a respective complete medium shown in Table 3 below to form test tea samples with different concentrations. In other words, the thus obtained test tea samples to be used for treating a respective cancer/tumor cell line shown in Table 3 were prepared using the same complete medium as that for the respective cancer/tumor cell line. […] Specifically, each of the aforesaid commercially available agents was subjected to the method described below to prepare comparative test samples. A proper amount of a respective commercially available agent was dissolved in phosphate-buffered saline (PBS) to prepare a stock solution with a concentration of 5 mg/mL, followed by using a membrane filter with a pore size of 0.22 μm to conduct vacuum filtration and sterilization. The resulting stock solution was diluted with a respective complete medium shown in Table 3 below to form comparative test samples with different concentrations. To be specific, the comparative test samples prepared from the respective commercially available agent have the concentrations shown in Table 2 below. The thus obtained comparative test samples to be used for treating a respective cancer/tumor cell line shown in Table 3 were prepared using the same complete medium as that for the respective cancer/tumor cell line. […] The cultivation of each cancer/tumor cell line is described as follows. […] Afterwards, a cell suspension having a cell density of 1.0×10^4 cells/mL was prepared. […] As experimental groups, the tumor/cancer cells of each cell line were treated with the test tea samples prepared from one or more of the tea products and the comparative test samples prepared from one or more of the commercially available agents as obtained in section B of this example (for more detailed information about the tea product(s) and the commercially available product (s) used to treat each cell line, please see Table 4 below). To be specific, 6 to 10 test tea samples prepared from the same tea product and having different concentrations, as well as 6 to 10 comparative test samples prepared from the same commercially available agent and having different concentrations, were utilized to treat the tumor/cancer cells of each cell line. For each experimental group, 6 repetitions of tumor/cancer treatment were performed. For the control group, 100 μL of PBS was added to a well containing the medium and the cancer/tumor cells of the respective cell line. For the blank group, 100 μL of PBS was added to a well containing a complete medium the same as that used for cultivation of the cancer/tumor cells of the respective cell line. After the treatment described above, cultivation was conducted in an incubator (37° C., 100% relative humidity, 5% CO2) for 48 hours. Subsequently, the liquid containing the medium and the sample in the well was removed, and a respective complete medium (shown in Table 3 above) containing 10% CCK-8 (Cell Counting Kit-8)(Dojindo Molecular Technologies, Inc., Cat. No. CK04-13) was added. Cultivation was performed in an incubator (37° C.) for 2 to 4 hours, followed by gently shaking.
# [2] = test system: human gastric cancer cell line BGC-823; assay: In vitro antitumor/anticancer testing (CCK-8), BGC-823; assay type: cell-based; conditions: 48 h
# Procedure: as §1
# [3] = In vitro antitumor/anticancer testing (CCK-8), SMMC-7721; assay type: cell-based, human; conditions: SMMC-7721; 48 h
# Procedure: as §1
# [4] = test system: human gastric cancer cell line SMMC-7721; assay: as above; assay type: cell-based; conditions: 48 h
# Procedure: as §1
# [5] = test system: human squamous cell carcinoma cell line A431; assay: In vitro antitumor/anticancer testing (CCK-8), A431; assay type: cell-based; conditions: 48 h
# Procedure: as §1
# [6] = test system: human leukemia cell line HL-60; assay: In vitro antitumor/anticancer testing (CCK-8), HL-60; assay type: cell-based; conditions: 48 h
# Procedure: as §1
# [7] = test system: human colon cancer cell line HCT-116; assay: In vitro antitumor/anticancer testing (CCK-8), HCT-116; assay type: cell-based; conditions: 48 h
# Procedure: as §1
# [8] = test system: human cervical cancer cell line Hela; assay: In vitro antitumor/anticancer testing (CCK-8), Hela; assay type: cell-based; conditions: 48 h
# Procedure: as §1
smiles,measurement,setting,value
"O=C(O[C@@H]1Cc2c(O)cc(O)cc2O[C@@H]1c1cc(O)c(O)c(O)c1)c1cc(O)c(O)c(O)c1 [EGCG monomer, epigallocatechin gallate]",Percent growth inhibition,[1]; 0.625 μg/mL,6.69%
same,Percent growth inhibition,[1]; 1.25 μg/mL,5.92%
same,Percent growth inhibition,[1]; 2.5 μg/mL,7.35%
same,Percent growth inhibition,[1]; 5 μg/mL,6.76%
same,Percent growth inhibition,[1]; 10 μg/mL,9.62%
same,Percent growth inhibition,[1]; 20 μg/mL,23.21%
same,Percent growth inhibition,[1]; 40 μg/mL,35.39%
same,Percent growth inhibition,[1]; 80 μg/mL,60.18%
same,IC50,[1]; A549,IC50 (μg/mL) = 59.74
same,Percent growth inhibition,[2]; 2.5 μg/mL,−0.82%
same,Percent growth inhibition,[2]; 5 μg/mL,−1.06%
same,Percent growth inhibition,[2]; 10 μg/mL,−0.64%
same,Percent growth inhibition,[2]; 20 μg/mL,6.47%
same,Percent growth inhibition,[2]; 40 μg/mL,28.02%
same,Percent growth inhibition,[2]; 80 μg/mL,60.53%
same,Percent growth inhibition,[2]; 160 μg/mL,97.87%
same,Percent growth inhibition,[2]; 320 μg/mL,98.16%
same,Percent growth inhibition,[2]; 640 μg/mL,97.03%
same,IC50,[2]; BGC-823,IC50 (μg/mL) = 62.94
same,IC50,[3],IC50 (μg/mL) = 77.41
same,Percent growth inhibition,[4]; 2.5 μg/mL,4.93%
same,Percent growth inhibition,[4]; 5 μg/mL,3.31%
same,Percent growth inhibition,[4]; 10 μg/mL,3.45%
same,Percent growth inhibition,[4]; 20 μg/mL,1.33%
same,Percent growth inhibition,[4]; 40 μg/mL,6.33%
same,Percent growth inhibition,[4]; 80 μg/mL,40.85%
same,Percent growth inhibition,[4]; 160 μg/mL,92.58%
same,Percent growth inhibition,[4]; 320 μg/mL,98.50%
same,Percent growth inhibition,[4]; 640 μg/mL,97.44%
same,Percent growth inhibition,[5]; 0.3125 μg/mL,7.79%
same,Percent growth inhibition,[5]; 0.625 μg/mL,13.31%
same,Percent growth inhibition,[5]; 1.25 μg/mL,10.00%
same,Percent growth inhibition,[5]; 2.5 μg/mL,12.70%
same,Percent growth inhibition,[5]; 5 μg/mL,19.18%
same,Percent growth inhibition,[5]; 10 μg/mL,24.03%
same,Percent growth inhibition,[5]; 20 μg/mL,34.07%
same,Percent growth inhibition,[5]; 40 μg/mL,55.14%
same,Percent growth inhibition,[5]; 80 μg/mL,30.13%
same,IC50,[5]; A431,IC50 (μg/mL) = 29.51
same,Percent growth inhibition,[6]; 2.5 μg/mL,5.10%
same,Percent growth inhibition,[6]; 5 μg/mL,12.43%
same,Percent growth inhibition,[6]; 10 μg/mL,16.22%
same,Percent growth inhibition,[6]; 20 μg/mL,27.14%
same,Percent growth inhibition,[6]; 40 μg/mL,44.21%
same,Percent growth inhibition,[6]; 80 μg/mL,76.96%
same,Percent growth inhibition,[6]; 160 μg/mL,73.03%
same,Percent growth inhibition,[6]; 320 μg/mL,83.90%
same,Percent growth inhibition,[6]; 640 μg/mL,91.13%
same,IC50,[6]; HL-60,IC50 (μg/mL) = 44.96
same,Percent growth inhibition,[7]; 2.5 μg/mL,10.74%
same,Percent growth inhibition,[7]; 5 μg/mL,−7.91%
same,Percent growth inhibition,[7]; 10 μg/mL,−4.12%
same,Percent growth inhibition,[7]; 20 μg/mL,−1.58%
same,Percent growth inhibition,[7]; 40 μg/mL,34.52%
same,Percent growth inhibition,[7]; 80 μg/mL,66.98%
same,IC50,[7]; HCT-116,IC50 (μg/mL) = 55.72
same,Percent growth inhibition,[8]; 0.3125 μg/mL,4.13%
same,Percent growth inhibition,[8]; 0.625 μg/mL,−0.68%
same,Percent growth inhibition,[8]; 1.25 μg/mL,1.08%
same,Percent growth inhibition,[8]; 2.5 μg/mL,−8.94%
same,Percent growth inhibition,[8]; 5 μg/mL,−6.50%
same,Percent growth inhibition,[8]; 10 μg/mL,−22.63%
same,Percent growth inhibition,[8]; 20 μg/mL,−20.22%
same,Percent growth inhibition,[8]; 40 μg/mL,−23.80%
same,Percent growth inhibition,[8]; 80 μg/mL,36.66%
same,IC50,[8]; Hela,IC50 (μg/mL) = 101.2
